Assay results reported in patent US20180207172A1, “TREATMENT FOR VITILIGO” (GLAXO GROUP LIMITED, priority 2015, published 2018).

System: CXCL10 secretion induced by poly(I:C) in HaCaT cells
Test: poly(I:C)-induced CXCL10 secretion assay in HaCaT cells (ELISA)
Type: cell-based, Human
Conditions: poly(I:C) 20 μg/ml, 48 hours
Method: In another CXCL10 assay, immortalized keratinocytes (HaCaTs) cells (AddexBio #T0020001) were cultured in DMEM (Thermo Fisher #10566-016) supplemented with 10% FBS and 1% penicillin/streptomycin. 1×10^5 HaCaT cells were seeded per well of a 24-well culture dish in 400 μl culture medium. Once confluent, medium was aspirated and cells were pretreated with 200 μl of DMSO vehicle (0.1%) or 3-fold serial dilutions ([…]) of 7-(2-(methyloxy)-6-{[(4-methyl-2-pyridinyl)methyl]oxy}-phenyl)-2,3,4,5-tetrahydro-1H-3-benzazepine (Compound 1) for 30 minutes at 37° C. with 5% CO2. After pre-treatment, 200 μl of poly(I:C) at 40 μg/ml was added per well (without removal of pre-treatment medium), making the final treatment concentration 20 μg/ml. Additional compound and/or DMSO was included to maintain concentrations. All samples received 0.1% DMSO during both pre-treatment and treatment phases. Cells were returned to the incubator for 48 hours. Each condition had biological triplicates.
At 48 hours, supernatants were collected, centrifuged to pellet debris, and then re-collected. CXCL10 secreted into the supernatant was measured by the Human CXCL10/IP-10 Quantikine ELISA Kit (R&D Systems #DIP 100) according to the manufacturer's protocol. […]

With `COc1cccc(OCc2cc(C)ccn2)c1-c1ccc2c(c1)CCNCC2` [Compound 1, 7-(2-(methyloxy)-6-{[(4-methyl-2-pyridinyl)methyl]oxy}-phenyl)-2,3,4,5-tetrahydro-1H-3-benzazepine] the “CXCL10 secretion induced by poly(I:C), percentage of maximum stimulation (vehicle = 100%)” value (30 min pre-treatment, supernatant ELISA, FIG. 1) was “dose-dependent decrease” and the “dose concentration at which maximal inhibition of CXCL10 secretion was observed” value (highest concentration tested) was 10 µM.
